From patent publication US20090088441A1, “Quinoline Compounds” (priority 2007, published 2009) come the findings set out here.

T1 sequence (Q9UBS5 15-961 limits assumed): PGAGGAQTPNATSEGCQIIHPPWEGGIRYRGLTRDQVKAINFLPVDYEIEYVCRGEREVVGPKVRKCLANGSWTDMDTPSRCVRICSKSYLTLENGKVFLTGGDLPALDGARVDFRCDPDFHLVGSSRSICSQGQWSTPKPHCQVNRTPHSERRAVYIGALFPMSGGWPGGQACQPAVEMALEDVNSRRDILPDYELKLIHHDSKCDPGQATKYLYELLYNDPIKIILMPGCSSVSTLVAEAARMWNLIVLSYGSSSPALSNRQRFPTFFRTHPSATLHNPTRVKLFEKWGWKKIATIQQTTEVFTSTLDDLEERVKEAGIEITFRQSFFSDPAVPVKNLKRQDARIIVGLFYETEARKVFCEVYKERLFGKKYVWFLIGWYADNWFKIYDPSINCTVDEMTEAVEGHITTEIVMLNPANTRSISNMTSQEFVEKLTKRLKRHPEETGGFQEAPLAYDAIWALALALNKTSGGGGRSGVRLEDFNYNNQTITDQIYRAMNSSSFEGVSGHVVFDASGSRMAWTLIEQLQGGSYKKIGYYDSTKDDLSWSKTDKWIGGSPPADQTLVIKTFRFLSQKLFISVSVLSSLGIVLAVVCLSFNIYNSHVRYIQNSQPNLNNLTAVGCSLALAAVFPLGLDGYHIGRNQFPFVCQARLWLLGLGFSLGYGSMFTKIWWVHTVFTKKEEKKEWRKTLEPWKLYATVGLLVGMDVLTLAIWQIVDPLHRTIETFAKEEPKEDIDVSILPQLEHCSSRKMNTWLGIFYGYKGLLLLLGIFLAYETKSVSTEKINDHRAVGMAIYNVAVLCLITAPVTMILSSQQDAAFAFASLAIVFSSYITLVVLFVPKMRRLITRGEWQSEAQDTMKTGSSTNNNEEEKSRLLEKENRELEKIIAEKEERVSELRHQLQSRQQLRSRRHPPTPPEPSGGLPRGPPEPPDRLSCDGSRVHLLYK
T1 sequence (O75899 42-941): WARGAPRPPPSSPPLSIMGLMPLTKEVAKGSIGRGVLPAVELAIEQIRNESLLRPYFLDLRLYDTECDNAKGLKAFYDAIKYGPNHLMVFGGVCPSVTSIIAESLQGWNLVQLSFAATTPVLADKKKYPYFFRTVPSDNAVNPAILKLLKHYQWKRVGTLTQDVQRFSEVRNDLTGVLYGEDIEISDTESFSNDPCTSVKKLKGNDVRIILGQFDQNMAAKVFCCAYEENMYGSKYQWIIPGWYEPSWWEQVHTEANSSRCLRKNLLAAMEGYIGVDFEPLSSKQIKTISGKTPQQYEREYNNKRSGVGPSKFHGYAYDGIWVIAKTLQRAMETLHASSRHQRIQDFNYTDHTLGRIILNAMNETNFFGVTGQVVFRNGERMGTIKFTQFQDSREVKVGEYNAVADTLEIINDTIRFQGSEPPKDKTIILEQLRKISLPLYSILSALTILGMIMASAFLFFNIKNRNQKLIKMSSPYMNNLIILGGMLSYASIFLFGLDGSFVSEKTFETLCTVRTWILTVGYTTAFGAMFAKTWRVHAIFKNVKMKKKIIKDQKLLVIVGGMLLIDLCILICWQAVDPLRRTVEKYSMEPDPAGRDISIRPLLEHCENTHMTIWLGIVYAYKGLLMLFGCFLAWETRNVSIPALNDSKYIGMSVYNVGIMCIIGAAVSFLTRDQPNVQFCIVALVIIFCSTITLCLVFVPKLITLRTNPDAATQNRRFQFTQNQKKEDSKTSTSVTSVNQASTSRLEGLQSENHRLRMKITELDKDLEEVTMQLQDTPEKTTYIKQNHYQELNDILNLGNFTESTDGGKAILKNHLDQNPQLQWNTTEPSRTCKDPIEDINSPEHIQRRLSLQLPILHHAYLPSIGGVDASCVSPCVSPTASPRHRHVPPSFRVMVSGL

One test concerns the target T1, GABABR1a/GABABR2 heterodimer (Homo sapiens, UniProt O75899+Q9UBS5).
T1 construct: expressed in transfected cells; membrane preparation
In words: GTPγS35 radioligand filtration-binding assay for determination of agonist potency. The note with it: membranes of CHO K1 Flp-In cells expressing GABABR1a/GABABR2; 30° C., 1 hour. The format is biochemical. The procedure:
(§1) The potency and efficacy of the compounds acting as agonists at the GABAB receptor was also determined in a automated GTPγS^35 radioligand filtration-binding assay.
(§2) The GABAB receptor is a G-protein coupled receptor. Binding of a ligand activates the receptor leading to recruitment of G-protein and a substitution of the G-protein bound GDP to GTP. The G-protein becomes active. The G-protein is inactivated by hydrolysis of GTP to GDP. G-proteins are membrane bound and therefore present in membrane preparations.
(§3) In the GTPγS^35 assay, GTP is not present but instead GTPγS^35 where one of the phosphate groups are substituted to a sulphur group which cannot be hydrolysed. Upon activation of the receptor, radiolabelled GTPγS^35 replaces the GDP. The complex cannot be inactivated and the radiolabelled complex is accumulating. At the end of the assay, the reaction mixture is filtered through a membrane-binding filter. Excess GTPγS^35 is removed by washing and the membrane bound S^35, which correlates to the degree of receptor activation, is measured with a β-Liquid Scintillation Counter.
The human GABABR1a was subcloned into pIRESneo3 (Clontech) using GABABR1a construct as a template (refseqN NM001470). GABABR2 was subcloned into pcDNA5/FRT (Invitrogen) using GABABR2 construct as a template (refseqN NM005458). The Kozak sequence GCCACC was introduced before the start codon in both constructs.
For generation of stable cell lines, CHO K1 Flp-In cells (Invitrogen) were grown in DMEM/F12 1:1 media supplemented with 10% FBS at 37° C. in a humidified CO2-incubator. The cells were detached with Accutase and 1.5 million cells were seeded into T75 flasks. After 24 h, transfection of the cells were performed with the GABABR2 construct. For generation of cell lines expressing GABABR2, GABABR2 plasmid (1 μg) and pOG44 from Invitrogen (9 μg) were mixed with 30 μl Lipofectamine 2000 in 600 μl OptiMEM for 20 minutes. The cells were exposed to transfection medium for 5 hours and was then replaced with culture medium. After 2 days 0.5 mg/ml Hygromycin were added to culture medium. The cells were cultured for an additional 10 days to establish a stable cell mix expressing GABABR2. For generation of a cell line expressing the GABABR1a/GABABR2 hetrodimer, GABABR1a plasmid DNA (8 μg) and Lipofectamine (30 μl) were mixed in 600 μl OptiMEM and incubated for 20 minutes before added to CHO-Flp-In cells expressing GABABR2. After 2 days additional selection agent was added (0.8 mg/ml Geneticin). The cells were cultured for another 10 days to generate a stable mixed population expressing the GABABR1a/GABABR2 heterodimer. The cell line was analyzed by GTPγS^35 assay with GABA as agonist.
GTPγS^35 radioligand filtration-binding assays were performed using an automated workstation at 30° C. for 1 hour in assay buffer (50 mM HEPES, 40 mM NaCl, 1 mM MgCl2×6H2O, 30 μg/mL Saponin, pH 7.4 at RT) containing 0.025 μg/μL of membrane protein (prepared from the cell line described above), 10 μM GDP and 0.55 nCi/μL GTPγS^35 in a final volume of 60 μL. The reaction was started by the addition of compounds (GABA was always included as a positive control), start concentration 100 μM dilution factor 3. The reaction was terminated and membranes collected by addition of ice-cold wash buffer (50 mM Tris-HCl, 5 mM MgCl2×6H2O, 50 mM NaCl, pH 7.4 at 4° C.) followed by rapid filtration under vacuum through a MultiScreen HTS 384 FB filter plate. Repeated washing of the filters with ice-cold wash buffer washed the unbound radioligand away. The filter plates were dried for 1½-2 hours at 50° C., then 8 μL scintillation liquid was added per well followed by incubation at RT for at least 20 minutes before bound radioactivity was determined using a β-Liquid Scintillation Counter (1450 Microbeta Trilux, Wallac, Finland)
100% activation (max) is calculated as the mean value for wells containing 1 mM GABA. […]
As usually defined, the EC50 is the concentration needed to bring the measured effect to its halfway point. In turn, `Cc1nc2ccc(N3CCCCC3)cc2c(-c2ccc(F)cc2)c1COc1ccc(Cl)cc1` [Example 25, 3-[(4-chlorophenoxy)methyl]-4-(4-fluorophenyl)-2-methyl-6-piperidin-1-ylquinoline] registered an EC50 of 1100 nM.

As for `Cc1nc2ccc(N3CCCCC3)cc2c(-c2ccc(F)cc2)c1C(C)Oc1ccccc1C#N` (stereo not shown) [Example 15, 2-{1-[4-(4-fluorophenyl)-2-methyl-6-piperidin-1-ylquinolin-3-yl]ethoxy}benzonitrile], it took 900 nM to reach a half-maximal effect (EC50).

The compound `Cc1nc2ccc(N3CCN(C)CC3)cc2c(-c2ccc(F)cc2)c1C(C)Oc1ccccc1C(C)C` (stereo not shown) [Example 18, 4-(4-fluorophenyl)-3-[1-(2-isopropylphenoxy)ethyl]-2-methyl-6-(4-methylpiperazin-1-yl)quinoline] gave a 50% effective concentration (EC50) of 4300 nM.

`Cc1nc2ccc(N3CCCCC3)cc2c(-c2ccc(F)cc2)c1C(C)Oc1ccc(Cl)cc1` (stereo not shown) [Example 4, 3-[1-(4-chlorophenoxy)ethyl]-4-(4-fluorophenyl)-2-methyl-6-piperidin-1-ylquinoline] displayed an EC50 of 1000 nM.

`Cc1nc2ccc(N3CCCCC3)cc2c(-c2ccc(F)cc2)c1C(C)Oc1ccc(O)cc1` (stereo not shown) [Example 19, 4-{1-[4-(4-fluorophenyl)-2-methyl-6-piperidin-1-ylquinolin-3-yl]ethoxy}phenol]: a half-maximal effect (EC50) was put at 1200 nM.

`COc1ccc(OC(C)c2c(C)nc3ccc(N4CCCCC4)cc3c2-c2ccc(F)cc2)cc1` (stereo not shown) [Example 11, 4-(4-fluorophenyl)-3-[1-(4-methoxyphenoxy)ethyl]-2-methyl-6-piperidin-1-ylquinoline] had an EC50 of 1600 nM.

`Cc1nc2ccc(N3CCCCC3)cc2c(-c2ccc(F)cc2)c1C(C)Oc1cccc(N(C)C)c1` (stereo not shown) [Example 12, (3-{1-[4-(4-fluorophenyl)-2-methyl-6-piperidin-1-ylquinolin-3-yl]ethoxy}phenyl)dimethylamine]: the EC50 is 2200 nM.

`Cc1nc2ccc(N3CCCCC3)cc2c(-c2ccc(F)cc2)c1C(C)Oc1ccc(S(C)(=O)=O)cc1` (stereo not shown) [Example 8, 4-(4-fluorophenyl)-2-methyl-3-{1-[4-(methylsulfonyl)phenoxy]ethyl}-6-piperidin-1-ylquinoline] gave an EC50 of 1700 nM.

The compound `Cc1nc2ccc(N3CCN(C)CC3)cc2c(-c2ccc(F)cc2)c1C(C)Oc1ccc(Cl)cc1` (stereo not shown) [Example 17, 3-[1-(4-chlorophenoxy)ethyl]-4-(4-fluorophenyl)-2-methyl-6-(4-methylpiperazin-1-yl)quinoline] came in with an EC50 of 7600 nM.

As for `Cc1nc2ccc(N3CCCCC3)cc2c(-c2ccc(F)cc2)c1C(C)Oc1ccccn1` (stereo not shown) [Example 5, 4-(4-fluorophenyl)-2-methyl-6-piperidin-1-yl-3-[1-(pyridin-2-yloxy)ethyl]quinoline], the response was half-maximal at 1800 nM (EC50).

`Cc1nc2ccc(N3CCCCC3)cc2c(-c2ccc(F)cc2)c1C(C)Oc1ccccc1Cl` (stereo not shown) [Example 10, 3-[1-(2-chlorophenoxy)ethyl]-4-(4-fluorophenyl)-2-methyl-6-piperidin-1-ylquinoline] came in with a half-maximal effective concentration (EC50) of 1300 nM.

In turn, `Cc1nc2ccc(N3CCCCC3)cc2c(-c2ccc(F)cc2)c1C(C)Oc1ccc(C#N)cc1` (stereo not shown) [Example 6, 4-{1-[4-(4-fluorophenyl)-2-methyl-6-piperidin-1-ylquinolin-3-yl]ethoxy}benzonitrile] yielded an EC50 of 2900 nM.

The compound `Cc1nc2ccc(N3CCCCC3)cc2c(-c2ccc(F)cc2)c1C(C)n1ccccc1=O` (stereo not shown) [Example 16, 1-{1-[4-(4-fluorophenyl)-2-methyl-6-piperidin-1-ylquinolin-3-yl]ethyl}pyridin-2(1H)-one] yielded an EC50 of 24000 nM.

As to `Cc1nc2ccc(N3CCCCC3)cc2c(-c2ccc(F)cc2)c1C(C)Oc1cccnc1` (stereo not shown) [Example 9, 4-(4-fluorophenyl)-2-methyl-6-piperidin-1-yl-3-[1-(pyridin-3-yloxy)ethyl]quinoline], the 50% effective concentration (EC50) amounted to 3000 nM.

As to `Cc1nc2ccc(N3CCCCC3)cc2c(-c2ccc(F)cc2)c1C(C)Oc1cccc(C(N)=O)c1` (stereo not shown) [Example 14, 3-{1-[4-(4-fluorophenyl)-2-methyl-6-piperidin-1-ylquinolin-3-yl]ethoxy}benzamide], the EC50 came out at 4500 nM.

As for `Cc1nc2ccc(N3CCCCC3)cc2c(-c2ccc(F)cc2)c1C(C)Oc1ccccc1C(C)C` (stereo not shown) [Example 13, 4-(4-fluorophenyl)-3-[1-(2-isopropylphenoxy)ethyl]-2-methyl-6-piperidin-1-ylquinoline], the EC50 turned out to be 300 nM.

On to `Cc1nc2ccc(N3CCCCC3)cc2c(-c2ccc(F)cc2)c1C(C)Oc1cccc(C#N)c1` (stereo not shown) [Example 7, 3-{1-[4-(4-fluorophenyl)-2-methyl-6-piperidin-1-ylquinolin-3-yl]ethoxy}benzonitrile], for which the midpoint of the response, the EC50, lay at 1500 nM.

The target in a further test is T2, GABAB(1A,2) receptor heterodimer (Homo sapiens, UniProt O75899+Q9UBS5).
T2 construct: expressed in transfected cells; membrane preparation
T2 sequence (Q9UBS5 15-961 limits assumed): as the sequence (Q9UBS5 15-961 limits assumed) above
T2 sequence (O75899 42-941): as the sequence (O75899 42-941) above
The test is described as follows: GTPγS35 radioligand filtration-binding assay for determination of PAM potency. It is filed as biochemical. The note with it: membranes of CHO-K1 cells expressing GABABR1a/GABABR2; GABA dose-response with 10, 1, 0.1 and 0.01 μM PAM; concentration reducing GABA's EC50 by 50%; read-out: Mean (EC50 derived) PAM EC50. The protocol:
The effect of GABA in an automated GTPγS^35 radioligand filtration-binding assay in CHO cells expressing the GABAB(1A,2) receptor heterodimer was studied in the presence or absence of the positive allosteric modulator test compounds.
as §1, §2, §3
GABABR1a and GABABR2 were cloned from human brain cDNA and subcloned into pCI-Neo (Promega) and pALTER-1 (Promega), respectively.
In order to optimise the Kozak consensus sequence of GABABR2, in situ mutagenesis was performed using the Altered Sites Mutagenesis kit according to manufacturer's instruction (Promega) with the following primer, 5′-[…]-3′. The optimised GABABR2 was then restricted from pALTER-1 with Xho I+Kpn I and subcloned into the mammalian expression vector pcDNA3.1 (−)/Zeo (Invitrogen) to produce the final construct, pcDNA3.1 (−)/Zeo-GABABR2.
For generation of stable cell lines, CHO-K1 cells were grown in Nut mix F-12 (Ham) media supplemented with 10% FBS, 100 U/ml Penicillin and 100 μg/ml Streptomycin at 37° C. in a humidified CO2-incubator. The cells were detached with 1 mM EDTA in PBS and 1 million cells were seeded in 100 mm petri dishes. After 24 hours the culture media was replaced with OptiMEM and incubated for 1 hour in a CO2-incubator.
For generation of a cell line expressing the GABABR1a/GABABR2 heterodimer, GABABR1a plasmid DNA ([…]) GABABR2 plasmid DNA (4 μg) and lipofectamine (24 μl) were mixed in 5 ml OptiMEM and incubated for 45 minutes at room temperature. […] After expansion, the GABAB receptor functional response was tested by measuring the GABAB receptor dependent release of intracellular calcium in a fluorescence imaging plate reader (FLIPR). […]
For `Cc1nc2ccc(N3CCCCC3)cc2c(-c2ccc(F)cc2)c1C(C)Oc1ccc(Cl)cc1` (stereo not shown) [Example 4, 3-[1-(4-chlorophenoxy)ethyl]-4-(4-fluorophenyl)-2-methyl-6-piperidin-1-ylquinoline], the EC50 was found to be 24000 nM.

Turning to `Cc1nc2ccc(Br)cc2c(-c2ccc(F)cc2)c1C(=O)OC(C)(C)C` [Example 20, tert-butyl 6-bromo-4-(4-fluorophenyl)-2-methylquinoline-3-carboxylate], the EC50 worked out at 3100 nM.
